Reference: patent US20220016061A1, “Preparation Stabilized by Means of Nonaqueous Solvent” (MEDRx Co., Ltd., priority 2018, published 2022)
Where a name gives a salt, the structure may show the parent alone.

Legend:
[1] = Assessment of stability of baclofen hydrochloride solution (Example 3); type: physicochemical; details: water, NMP, propylene glycol, glycerin; 50° C.
Procedure: Baclofen (10.0 g) was dissolved in 10% hydrochloric acid (20 g), the solvent in the prepared solution was frozen, and then the frozen product was dried in a lyophilizer overnight to give baclofen hydrochloride.
The resulting baclofen hydrochloride was dissolved in water, NMP (N-methylpyrrolidone), propylene glycol or glycerin to prepare each solution comprising baclofen hydrochloride in an amount of 0.25% by weight. Each of the prepared solutions was stored at 50° C. and the contexts of baclofen and ring products thereof in the solutions were measured after 1 and 2 weeks of the storage to assess the stability of baclofen.

[2] = Solubility of baclofen in solvents; type: physicochemical
Description: The concentration of baclofen was insufficient to be used as an external preparation.

NCC(CC(=O)O)c1ccc(Cl)cc1 (stereo not shown) [Baclofen hydrochloride]
stability when dissolved in the solvents [1]: stable

NCC(CC(=O)O)c1ccc(Cl)cc1 (stereo not shown) [baclofen, 4-amino-3-(4-chloropehnyl)butanoic acid]
solubility in 10% hydrochloric acid ([2]; 10% hydrochloric acid): about 39%
solubility in lactic acid ([2]; lactic acid): about 33%
solubility in water ([2]; water): about 0.27%
